Assay results from US10829501B2 (BRISTOL-MYERS SQUIBB COMPANY, priority 2016, dated 2020).
Where a name gives a salt, the structure may show the parent alone.

Target: ROCK2 (Homo sapiens, UniProt O75116)
Assay: ROCK2 kinase inhibition assay (LABCHIP 3000 Reader, FITC peptide substrate);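 note: rho kinase reaction read by separating phosphorylated from unphosphorylated peptide on chip, with inhibition of kinase activity computed per concentration across a dose-response series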

ROCK2, sequence (O75116 whole entry, species assumed): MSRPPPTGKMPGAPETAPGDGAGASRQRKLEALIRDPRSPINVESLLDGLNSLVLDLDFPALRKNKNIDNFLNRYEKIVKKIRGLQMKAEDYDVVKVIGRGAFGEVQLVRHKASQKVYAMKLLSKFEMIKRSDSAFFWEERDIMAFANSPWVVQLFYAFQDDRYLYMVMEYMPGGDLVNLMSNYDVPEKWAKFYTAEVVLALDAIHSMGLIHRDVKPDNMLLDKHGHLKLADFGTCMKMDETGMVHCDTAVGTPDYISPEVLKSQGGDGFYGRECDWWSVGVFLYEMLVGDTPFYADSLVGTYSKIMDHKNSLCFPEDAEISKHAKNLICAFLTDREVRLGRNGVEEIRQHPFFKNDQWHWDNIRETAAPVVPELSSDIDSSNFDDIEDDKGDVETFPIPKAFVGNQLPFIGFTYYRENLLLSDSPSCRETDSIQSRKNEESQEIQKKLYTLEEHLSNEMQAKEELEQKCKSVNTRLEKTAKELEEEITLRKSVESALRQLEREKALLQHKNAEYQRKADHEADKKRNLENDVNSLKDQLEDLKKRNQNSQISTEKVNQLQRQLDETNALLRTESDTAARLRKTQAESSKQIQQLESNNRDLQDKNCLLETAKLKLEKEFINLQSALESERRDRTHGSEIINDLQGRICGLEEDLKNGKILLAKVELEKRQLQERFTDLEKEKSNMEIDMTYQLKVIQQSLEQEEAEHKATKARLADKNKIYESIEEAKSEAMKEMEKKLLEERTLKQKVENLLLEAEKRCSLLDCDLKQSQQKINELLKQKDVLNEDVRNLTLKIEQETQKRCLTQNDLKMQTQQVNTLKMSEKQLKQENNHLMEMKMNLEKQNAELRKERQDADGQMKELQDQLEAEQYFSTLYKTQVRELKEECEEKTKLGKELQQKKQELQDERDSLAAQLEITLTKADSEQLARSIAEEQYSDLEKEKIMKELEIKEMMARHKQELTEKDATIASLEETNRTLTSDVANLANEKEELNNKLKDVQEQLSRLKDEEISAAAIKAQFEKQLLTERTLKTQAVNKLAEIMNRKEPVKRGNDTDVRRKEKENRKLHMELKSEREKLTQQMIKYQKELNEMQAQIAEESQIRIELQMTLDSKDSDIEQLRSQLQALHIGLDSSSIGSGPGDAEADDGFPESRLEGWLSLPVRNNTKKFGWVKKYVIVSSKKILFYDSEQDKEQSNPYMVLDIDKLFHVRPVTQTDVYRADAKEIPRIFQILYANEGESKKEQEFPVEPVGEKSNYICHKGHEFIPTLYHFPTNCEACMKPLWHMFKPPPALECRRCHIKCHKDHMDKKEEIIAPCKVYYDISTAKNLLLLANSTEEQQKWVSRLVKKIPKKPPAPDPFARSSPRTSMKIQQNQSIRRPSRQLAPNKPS

| SMILES | IC50 [nM] |
| --- | --- |
| CS(=O)(=O)c1ccc2c(c1)CCN2C(=O)N[C@H]1CC2(C1)C[C@H](Oc1ccccc1C(N)=O)C2 (stereo partly drawn) [Example 39, N-[(aR)-6-(2-carbamoylphenoxy)spiro [3.3]heptan-2-yl]-5-methanesulfonyl-2,3-dihydro-1H-indole-1-carboxamide] | 50 to 250 |
| COc1ccc(NC(=O)N[C@H]2CC3(C2)C[C@H](Oc2ccccc2C(N)=O)C3)cc1 (stereo partly drawn) [Example 40, 2-[((aR)-6-{[(4-methoxyphenyl)carbamoyl]amino}spiro[3.3]heptan-2-yl)oxy]benzamide] | 50 to 250 |
| [H][C@]1(Oc2ncccc2C(N)=O)C[C@@]2(C[C@H](NC(=O)c3cnn4c(CCC(F)(F)F)c(OCC(C)(C)O)ccc34)C2)C1 (stereo partly drawn) [Example 43, N-((aR)-6-((3-carbamoylpyridin-2-yl)oxy)spiro[3.3]heptan-2-yl)-6-(2-hydroxy-2-methylpropoxy)-7-(3,3,3-trifluoropropyl)pyrazolo[1,5-a]pyridine-3-carboxamide] | < 5 |
| [H][C@]1(Oc2ccncc2C(N)=O)C[C@@]2(C[C@H](NC(=O)c3cnn4cc(OCC(C)(C)O)ccc34)C2)C1 (stereo partly drawn) [Example 44, N-((aR)-6-((3-carbamoylpyridin-4-yl)oxy)spiro[3.3]heptan-2-yl)-6-(2-hydroxy-2-methylpropoxy)pyrazolo[1,5-a]pyridine-3-carboxamide] | 250 to 2500 |
| [H][C@]1(Oc2cnccc2C(N)=O)C[C@@]2(C[C@H](NC(=O)c3cnn4cc(OCC(C)(C)O)ccc34)C2)C1 (stereo partly drawn) [Example 45, N-((aR)-6-((4-carbamoylpyridin-3-yl)oxy)spiro[3.3]heptan-2-yl)-6-(2-hydroxy-2-methylpropoxy)pyrazolo[1,5-a]pyridine-3-carboxamide] | 50 to 250 |
| [H][C@]1(Oc2ncccc2C(N)=O)C[C@@]2(C[C@H](NC(=O)c3nn(CC(C)(C)O)c4cc(-c5cnn(C)c5)ccc34)C2)C1 (stereo partly drawn) [Example 46, N-((aR)-6-((3-carbamoylpyridin-2-yl)oxy)spiro[3.3]heptan-2-yl)-1-(2-hydroxy-2-methylpropyl)-6-(1-methyl-1H-pyrazol-4-yl)-1H-indazole-3-carboxamide] | < 5 |
| CC(C)(O)COc1ccc2c(C(=O)N[C@H]3CC4(C3)C[C@H](Oc3nnccc3C(N)=O)C4)cnn2c1 (stereo partly drawn) [Example 48, N-((aR)-6-((4-carbamoylpyridazin-3-yl)oxy)spiro[3.3]heptan-2-yl)-6-(2-hydroxy-2-methylpropoxy)pyrazolo[1,5-a]pyridine-3-carboxamide] | 50 to 250 |
| [H][C@]1(Oc2ncccc2C(N)=O)C[C@@]2(C[C@H](NC(=O)c3cnn4c(C5CC5)c(OCC(C)(C)F)ccc34)C2)C1 (stereo partly drawn) [Example 49, N-((aR)-6-((3-carbamoylpyridin-2-yl)oxy)spiro[3.3]heptan-2-yl)-7-cyclopropyl-6-(2-fluoro-2-methylpropoxy)pyrazolo[1,5-a]pyridine-3-carboxamide] | < 5 |
| [H][C@]1(Oc2ncccc2C(N)=O)C[C@@]2(C[C@H](NC(=O)c3nn(CC(C)(C)O)c4ccc(-c5cnn(C)c5)cc34)C2)C1 (stereo partly drawn) [Example 50, N-((aR)-6-((3-carbamoylpyridin-2-yl)oxy)spiro[3.3]heptan-2-yl)-1-(2-hydroxy-2-methylpropyl)-5-(1-methyl-1H-pyrazol-4-yl)-1H-indazole-3-carboxamide] | 5 to 50 |
| [H][C@]1(Oc2ncccc2C(N)=O)C[C@@]2(C[C@H](NC(=O)c3cc(-c4cnn(C(F)F)c4)cc(S(C)(=O)=O)c3)C2)C1 (stereo partly shown) [Example 51] | 5 to 50 |
| [2H]C([2H])([2H])n1cc(-c2cc(C(=O)N[C@H]3CC4(C3)C[C@H](Oc3ncccc3C(N)=O)C4)cc(S(C)(=O)=O)c2)cn1 (stereo partly shown) [Example 53, 2-{[(4s)-6-{3-methanesulfonyl-5-[1-(^2H3)methyl-1H-pyrazol-4-yl]benzamido}spiro[3.3]heptan-2-yl]oxy}pyridine-3-carboxamide] | 5 to 50 |
| [H][C@]1(Oc2ncccc2C(N)=O)C[C@@]2(C[C@H](NC(=O)c3cccc(-c4cnn(C)c4)c3)C2)C1 (stereo partly shown) [Example 54] | 50 to 250 |
| [H][C@]1(Oc2ncccc2C(N)=O)C[C@@]2(C[C@H](NC(=O)c3cccc(-c4cccc(S(C)(=O)=O)c4)c3)C2)C1 (stereo partly shown) [Example 55] | 50 to 250 |
| [H][C@]1(Oc2ncccc2C(N)=O)C[C@@]2(C[C@H](NC(=O)c3cc(OCCC(F)(F)F)cc(-c4cnn(C)c4)c3)C2)C1 (stereo partly shown) [Example 57] | 50 to 250 |
| [H][C@]1(Oc2ncccc2C(N)=O)C[C@@]2(C[C@H](NC(=O)c3cn4nc(OC)ccc4n3)C2)C1 (stereo partly drawn) [Example 59, N-((aR)-6-((3-carbamoylpyridin-2-yl)oxy)spiro[3.3]heptan-2-yl)-6-methoxyimidazo[1,2-b]pyridazine-2-carboxamide] | 250 to 2500 |
| [H][C@]1(Oc2ncccc2C(N)=O)C[C@@]2(C[C@H](NC(=O)c3cn4nc(Cl)ccc4n3)C2)C1 (stereo partly drawn) [Example 62, N-((aR)-6-((3-carbamoylpyridin-2-yl)oxy)spiro[3.3]heptan-2-yl)-6-chloroimidazo[1,2-b]pyridazine-2-carboxamide] | 250 to 2500 |
| CC(C)(O)COc1ccn2c(C(=O)N[C@H]3CC4(C3)C[C@H](Oc3ncccc3C(N)=O)C4)cnc2c1C1CC1 (stereo partly drawn) [Example 65, N-((aR)-6-((3-carbamoylpyridin-2-yl)oxy)spiro[3.3]heptan-2-yl)-8-cyclopropyl-7-(2-hydroxy-2-methylpropoxy) imidazo[1,2-a]pyridine-3-carboxamide, trifluoroacetate] | < 5 |
| Cn1nc(C(=O)N[C@H]2CC3(C2)C[C@H](Oc2ncccc2C(N)=O)C3)c2ccccc21 (stereo partly shown) [Example 66] | 5 to 50 |
| Cn1ncc2cc(C(=O)N[C@H]3CC4(C3)C[C@H](Oc3ncccc3C(N)=O)C4)ccc21 (stereo partly drawn) [Example 68, N-((aR)-6-((3-carbamoylpyridin-2-yl)oxy)spiro[3.3]heptan-2-yl)-1-methyl-1H-indazole-5-carboxamide, trifluoroacetae] | 50 to 250 |
| NC(=O)c1cccnc1O[C@H]1CC2(C[C@H](NC(=O)c3ccn4ccnc4c3)C2)C1 (stereo partly drawn) [Example 71, N-((aR)-6-((3-carbamoylpyridin-2-yl)oxy)spiro[3.3]-heptan-2-yl)imidazo[1,2-a] pyridine-7-carboxamdie, trifluoroacetate] | 250 to 2500 |
| NC(=O)c1cccnc1O[C@H]1CC2(C[C@H](NC(=O)c3cn4ccccc4n3)C2)C1 (stereo partly drawn) [Example 75, N-((aR)-6-((3-carbamoylpyridin-2-yl)oxy)spiro[3.3]-heptan-2-yl)imidazo[1,2-a] pyridine-2-carboxamide, trifluoroacetate] | 250 to 2500 |

Other lines, results leading:

| IC50 [nM] | SMILES |
| --- | --- |
| 50 to 250 | NC(=O)c1ccccc1O[C@H]1CC2(C[C@H](NC(=O)N3Cc4ccccc4C3)C2)C1 (stereo partly drawn) [Example 41, N-[(aR)-6-(2-carbamoylphenoxy)spiro [3.3]heptan-2-yl]-2,3-dihydro-1H-isoindole-2-carboxamide] |
| < 5 | [H][C@]1(Oc2ncccc2C(N)=O)C[C@@]2(C[C@H](NC(=O)c3cnn4c(C5CC5)c(OCC(C)(C)O)ccc34)C2)C1 (stereo partly drawn) [Example 42, N-((aR)-6-((3-carbamoylpyridin-2-yl)oxy)spiro[3.3]heptan-2-yl)-7-cyclopropyl-6-(2-hydroxy-2-methylpropoxy)pyrazolo[1,5-a]pyridine-3-carboxamide] |
| 5 to 50 | [H][C@]1(Oc2ncccc2C(N)=O)C[C@@]2(C[C@H](NC(=O)c3cnc4c(C5CC5)c(OCC(C)(C)F)ccn34)C2)C1 (stereo partly drawn) [Example 47, N-((aR)-6-((3-carbamoylpyridin-2-yl)oxy)spiro[3.3]heptan-2-yl)-8-cyclopropyl-7-(2-fluoro-2-methylpropoxy)imidazo[1,2-a]pyridine-3-carboxamide] |
| 5 to 50 | [H][C@]1(Oc2ncccc2C(N)=O)C[C@@]2(C[C@H](NC(=O)c3cc(-c4cnn(C)c4)cc(S(C)(=O)=O)c3)C2)C1 (stereo partly shown) [Example 52] |
| 5 to 50 | [H][C@]1(Oc2ncccc2C(N)=O)C[C@@]2(C[C@H](NC(=O)c3cc(Br)cc(OCCC(F)(F)F)c3)C2)C1 (stereo partly shown) [Example 56] |
| 50 to 250 | [H][C@]1(Oc2ncccc2C(N)=O)C[C@@]2(C[C@H](NC(=O)c3cc(OCCC(F)(F)F)cc(-c4cccc(S(C)(=O)=O)c4)c3)C2)C1 (stereo partly shown) [Example 58] |
| 250 to 2500 | [H][C@]1(Oc2ncccc2C(N)=O)C[C@@]2(C[C@H](NC(=O)c3cnc4c(OC)cc(Cl)nn34)C2)C1 (stereo partly drawn) [Example 60, N-((aR)-6-((3-carbamoylpyridin-2-yl)oxy)spiro[3.3]heptan-2-yl)-6-chloro-8-methoxyimidazo[1,2-b]pyridazine-3-carboxamide] |
| 50 to 250 | [H][C@]1(Oc2ncccc2C(N)=O)C[C@@]2(C[C@H](NC(=O)c3cn4nc(OCC(F)(F)F)ccc4n3)C2)C1 (stereo partly drawn) [Example 61, N-((aR)-6-((3-carbamoylpyridin-2-yl)oxy)spiro[3.3]heptan-2-yl)-6-(2,2,2-trifluoroethoxy)imidazo[1,2-b]pyridazine-2-carboxamide] |
| 250 to 2500 | [H][C@]1(Oc2ncccc2C(N)=O)C[C@@]2(C[C@H](NC(=O)c3cn4cc(C(N)=O)ccc4n3)C2)C1 (stereo partly drawn) [Example 63, N^2-((aR)-6-((3-carbamoylpyridin-2-yl)oxy)spiro[3.3]heptan-2-yl)imidazo[1,2-a]pyridine-2,6-dicarboxamide] |
| 5 to 50 | CC(C)(O)COc1ccc2c(C(=O)N[C@H]3CC4(C3)C[C@H](Oc3ncccc3C(N)=O)C4)cnn2c1 (stereo partly drawn) [Example 64, N-((aR)-6-((3-carbamoylpyridin-2-yl)oxy)spiro[3.3]-heptan-2-yl)-6-(2-hydroxy-2-methylpropoxy) pyrazolo-[1,5-a]pyridine-3-carboxamide, trifluoroacetate] |
| 50 to 250 | Cn1c(C(=O)N[C@H]2CC3(C2)C[C@H](Oc2ncccc2C(N)=O)C3)cc2ccccc21 (stereo partly drawn) [Example 70, N-((aR)-6-((3-carbamoylpyridin-2-yl)oxy)spiro[3.3]heptan-2-yl)-1-methyl-1H-indole-2-carboxamide, trifluoroacetate] |
| 5 to 50 | NC(=O)c1cccnc1O[C@H]1CC2(C[C@H](NC(=O)c3cnc4ccccc4c3)C2)C1 (stereo partly drawn) [Example 72, N-((aR)-6-((3-carbamoylpyridin-2-yl)oxy)spiro[3.3]-heptan-2-yl)quinoline-3-carboxamide, trifluoroacetate] |
| 250 to 2500 | NC(=O)c1cccnc1O[C@H]1CC2(C[C@H](NC(=O)c3ccc(-n4cccn4)cc3)C2)C1 (stereo partly drawn) [Example 74, 2-((aR)-6-(4-(1H-pyrazol-1-yl)benzamido)spiro[3.3]heptan-2-yl)oxy) nicotinamide, trifluoroacetate] |
